System: Staphylococcus aureus bacteria
Experiment: 2 Hours % Live Bacteria Test
Format: cell-based
Settings: standard solution 0.5 wt-% in DI, calculated Ag+ weight 22,224 μg
Description: The effectiveness of a sample was tested using a L-7012, Bacterial Viability Kit, available from Molecular Probes (Eugene, Oreg.). The procedure is outlined below using the red, propidium iodide dye, and green, SYTO 9 dye, contained in the kit to stain the live and dead bacteria.
Preparation of bacteria solution: Staphylococcus aureus bacteria were grown in Trypticase (Tryptic) Soy Broth (TSB) medium overnight. Bacteria were concentrated by centrifugation at 10,000× gravity for 15 minutes (min). Supernatant was removed and the pellet was re-suspended in MilliQ water (filtered through a 0.2 μm pore-size filter) or in Butterfield phosphate buffer (from Hardy Diagnostics, Santa Maria, Calif.). […]
Sample preparation: All prototypes were prepared by punching out a 1-inch (2.54-cm) diameter samples using a stainless steel punch; sometimes as indicated in the examples a 1-inch (2.54 cm) disk was further cut with scissors in eighths and then evaluated. […]
Bacteria labeling and Anti-microbial testing: 7 m]L of bacteria solution at initial concentration of approximately 1×10^8 bacteria/mL were pipetted into a 50 mL conical tube containing the sample. […] These solutions were then measured by flow cytometry. Cell viability was measured using the BD FACSCaliber flow cytometer (made by Becton Dickinson & Company, Franklin Lakes, N.J.). […]

O=[N+]([O-])[O-].[Ag+] [silver nitrate, Silver Nitrate]
% live bacteria after 2 hours: 15.8%
